Assay results from patent publication US7105512B2, “Ophthalmic aqueous pharmaceutical preparation” (Wakamoto Pharmaceutical Co., Ltd., priority 1999, dated 2006).
Where “and” joins values, the source holds several entries; their conditions need not be identical. Identical values can stand only once. Counter-ions that a name gives are not always drawn.

How the values were obtained:
[1] = Comparison of solubility in water of meloxicam salts by UV analysis
[2] = Solubility of meloxicam in water near the neutral pH region; format: physicochemical; conditions: at 25° C.
[3] = pH of the aqueous solution at the concentration of the same line, below saturation
[4] = pH of the saturated aqueous solution (SAS)

SMILES: Cc1cnc(NC(=O)C2=C(O)c3ccccc3S(=O)(=O)N2C)s1 [Trometamol Salt, trometamol salt of meloxicam]
- pH [1, 3]: 7.52 and 7.71
- pH [1, 4]: 7.93

SMILES: Cc1cnc(NC(=O)C2=C(O)c3ccccc3S(=O)(=O)N2C)s1 [meloxicam]
- solubility of meloxicam in water, saturated concentration [2]: about 0.2 mg/100 mL

SMILES: Cc1cnc(NC(=O)C2=C([O-])c3ccccc3S(=O)(=O)N2C)s1.[Na+] [Sodium Salt, Sodium salt of meloxicam]
- pH [1, 4]: 8.06

SMILES: CNC[C@H](O)[C@@H](O)[C@H](O)[C@H](O)CO.Cc1cnc(NC(=O)C2=C(O)c3ccccc3S(=O)(=O)N2C)s1 [Meglumine Salt, meglumine salt of meloxicam]
- pH [1, 3]: 8.57 and 8.64 and 8.73
- pH [1, 4]: 9.02
